As usually defined, the Kd is the concentration at which binding is half-saturated.

The values that follow come from BindingDB's records for doi:10.1128/AAC.00311-07 (University of California San Francisco, 2007).

The test deals with T1, Lanosterol 14-alpha demethylase (Mycobacterium tuberculosis (strain CDC 1551 / Oshkosh), UniProt P9WPP8).
T1 sequence (P9WPP8 whole entry): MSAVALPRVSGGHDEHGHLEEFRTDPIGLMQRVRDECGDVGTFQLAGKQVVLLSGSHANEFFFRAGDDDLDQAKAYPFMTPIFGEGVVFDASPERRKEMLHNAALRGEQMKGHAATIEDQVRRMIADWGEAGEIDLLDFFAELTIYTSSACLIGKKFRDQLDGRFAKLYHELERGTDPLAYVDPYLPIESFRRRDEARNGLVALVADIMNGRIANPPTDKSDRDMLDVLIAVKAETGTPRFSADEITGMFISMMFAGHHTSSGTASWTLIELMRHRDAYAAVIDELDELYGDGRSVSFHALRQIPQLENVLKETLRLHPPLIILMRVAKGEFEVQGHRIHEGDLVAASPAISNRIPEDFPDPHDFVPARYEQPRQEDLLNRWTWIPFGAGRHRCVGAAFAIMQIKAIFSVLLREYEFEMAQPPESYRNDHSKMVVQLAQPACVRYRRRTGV
Kind of test: Ligand Binding Assay. As to conditions: pH 7.5; 37 °C. The text has this: The assay was developed based on the optical spectral property of P450 enzyme to elicit both type I and type II spectral changes (350 nm through 450 nm). The concentration dependence of the changes allows the binding affinities of the ligands to be estimated. Titration data were linearized by plotting S0/deltaA against S0, where S0 is the total concentration of a ligand and deltaA is the change in absorption. The equilibrium dissociation constant (Kd) was extrapolated from the intercept of the linear plot with the S0 axis.
With `COc1ccccc1C(CCN)c1ccco1` (stereo not drawn) [3-furan-2-yl-3-(2-methoxyphenyl)propan-1-amine], the dissociation constant Kd worked out at 7.5 µM. `C[C@]12CCC3c4ccc(O)cc4CCC3C1C[C@@H](O)[C@@H]2O` (stereo partly drawn) [Epiestriol] returned a Kd of 100 µM. The figure for `O=C1c2cc(O)ccc2-c2ccc(O)cc21` [2,7-Dihydroxy-9-fluorenone] is 37.5 µM. The figure for `c1ccc(-c2c[nH]cn2)cc1` is 1300 µM; for `CCC1(C)CC(CCN)(c2ccc(OC)cc2)CCO1` (stereo not drawn) [2-[2-ethyl-4-(4-methoxyphenyl)-2-methyloxan-4-yl]ethan-1-amine] it is 7.5 µM; for `Nc1ccc(NS(=O)(=O)c2ccc(Cl)cc2)cc1` [N-(4-aminophenyl)-4-chlorobenzene-1-sulfonamide] it is 7.5 µM. Regarding `NCC(=O)N1c2ccccc2SC2C=CC=CC21` (stereo not drawn) [1-(10,10a-dihydro-4aH-phenothiazin-10-yl)-2-aminoethan-1-one], the Kd amounted to 7.5 µM.

Consider `O=C(Nc1ccncc1)C1(c2ccccc2)CCOCC1` [4-phenyl-N-pyridin-4-yltetrahydro-2H-pyran-4-carboxamide], for which the Kd was determined as 7.5 µM.
